Measured values taken from patent EP1021178B1, “SELENOPHENE ANTI-TUMOR AGENTS” (Purdue Research Foundation, priority 1996, dated 1997).

Assays:
Assay in all cases: NCI human tumor cell panel
HCC-2998 = assay type: cell-based; conditions: HCC 2998, read-out: Log10 LC50 (converted)
From the text: (§1) Considering the diversity of tumors in terms of cell type, morphology, growth rate and other cellular characteristics, the U.S. National Cancer Institute (NCI) has developed a "disease-oriented" approach to antitumor activity screening (M.R. Boyd, in "Principle of Practice of Oncology" J.T. Devita, S. Hellman, S.A. Rosenberg (Eds.) Vol. 3, PPO Update, No. 10, 1989). This in vitro prescreening system is based on the measurement of antitumor cytotoxicity against human tumor cell line panels consisting of approximately 60 cell lines of major human tumors (including leukemia and slower growing tumor cells such as lung, colon, breast, skin, kidney, etc.). The most important advantage of the new in vitro screening panels is the opportunity to identify compounds that are selectively more cytotoxic to cells of slowly growing solid tumors than to rapidly growing leukemia cells.
(§2) The cytotoxic activity of the present selenophene compounds have been measured utilizing two different assays or screens. The first screen measures the cytotoxicity against a panel of sixty different human tumor cell lines. This assay provides data regarding the general cytotoxicity of an individual compound. In particular this type of assay is useful in identifying compounds which have enhanced cytotoxic activity against slow growing tumors as compared to faster growing tumor cells such as leukemia tumor cell lines. The identification of such compounds is critical since previously identified antitumor agents have low cytotoxic activity against slower growing tumors. […] The specificity of a cytotoxic compound for tumor cell lines relative to normal cells is an important characteristic of an effective antitumor agent.
(§3) Antitumor cytotoxicity data generated from the National Cancer Institute human tumor cell panels can also be expressed in a graphic pattern (mean graph) to display differential cell growth inhibition (K.D. Paull, R.H. Shoemaker, L. Hodes, A. Monks, D.A. Scudiero, L. Rubinstein, J. Plowman and M.R. Boyd, J. Nail. Cancer Inst., 81, 1088, 1989.) In the mean graph, the arithmetic mean of the logarithm of the GI50 (50% growth inhibition), TGI (total growth inhibition) or LC50 (50% lethal concentration) values is used as an anchor point. […] The length of a bar is indicative of differential cytotoxicity against a specific type of tumor cells or tumor panels.
(§4) The antitumor cytotoxicity of the selenophene compounds tested in those in vitro assays was measured by a microculture assay using either a 3-(4,5-dimethylthiazol-2-yl)-2,5-diphenyltetrazolium bromide (MTT) or sulforhodamine B (SRB) based assay. [M.R. Boyd in "Principles and Practices of Oncology," V.T. DeVita, Jr.]. The experiments were conducted at Purdue University in 96-well microtiter plates and the cytotoxic effects of the selenophene compounds on those cells were measured by cell count using a Coulter Z.F. counter (Hialeah, FL). The results are expressed as GI50, the concentration of drug at which cell numbers are reduced to 50% of control cell culture [T.C.K. Chan, C.J. Chang, N.M. Koonchanok and R.L. Geahlen, Biochem. Biophys. Res. Commun., 193, 1152, (1993); S. Hellman and S.A. Rosenberg (Eds.), Vol. 3, PPO Updates, Number 10, (1989).]
(§5) This in vitro microculture assay has an advantage over in vivo assays in that results are obtained within a week as opposed to several months. The MTT assay is based on the production of a dark blue formazan product by dehydrogenase in the mitochondria of live tumor cells after exposure to drug for 6 days [M.C. Alley, D.A. Scudiero, A. Monks, M.L. Hursey, M.J. Czerwinski, D.L. Fine, B.J. Abbott, J.G. Mayo, R.H. Shoemaker and M.R. Boyd, Cancer Res., 48, 589, 1988]. Thus, only live cells are stained and can be measured at 570 nm. […]

A498 = assay type: cell-based; conditions: A498, read-out: Log10 LC50 (converted)
From the text: as §1, §2, §3, §4, §5

NCI-H460 = assay type: cell-based; conditions: NCI-H460, read-out: Log10 LC50 (converted)
From the text: as §1, §2, §3, §4, §5

HCT-15 = assay type: cell-based; conditions: HCT-15, read-out: Log10 LC50 (converted)
From the text: as §1, §2, §3, §4, §5

MDA-N = assay type: cell-based; conditions: read-out: Log10 LC50 (converted)
From the text: as §1, §2, §3, §4, §5

M14 = assay type: cell-based; conditions: M14, read-out: Log10 LC50 (converted)
From the text: as §1, §2, §3, §4, §5

KM12 = assay type: cell-based; conditions: KM12, read-out: Log10 LC50 (converted)
From the text: as §1, §2, §3, §4, §5

NCI-H322M = assay type: cell-based; conditions: read-out: Log10 LC50 (converted)
From the text: as §1, §2, §3, §4, §5

SR = assay type: cell-based; conditions: read-out: Log10 LC50 (converted)
From the text: as §1, §2, §3, §4, §5

ACHN = assay type: cell-based; conditions: read-out: Log10 LC50 (converted)
From the text: as §1, §2, §3, §4, §5

SF-295 = conditions: for CC50: SF-295, read-out: Log10 LC50 (converted)
UO-31 = conditions: UO-31, read-out: Log10 LC50 (converted)
SK-MEL-5 = conditions: SK-MEL-5, read-out: Log10 LC50 (converted)
OVCAR-3 = conditions: OVCAR-3, read-out: Log10 LC50 (converted)
MDA-MB-435 = conditions: MDA-MB-435, read-out: Log10 LC50 (converted)
OVCAR-8 = conditions: OVCAR-8, read-out: Log10 LC50 (converted)
NCI-H23 = conditions: for CC50: NCI-H23, read-out: Log10 LC50 (converted); for IC (TGI): NCI-H23, read-out: Log10 TGI
MALME-3M = conditions: for CC50: read-out: Log10 LC50 (converted)
SNB-75 = conditions: SNB-75, read-out: Log10 LC50 (converted)
EKVX = conditions: read-out: Log10 LC50 (converted)
TK-10 = conditions: TK-10, read-out: Log10 LC50 (converted)

Compound	CC50 (HCC-2998) [µM]	CC50 (A498) [µM]	LC50 (concentration killing 50% of cells) (NCI-H460) [µM]	CC50 (HCT-15) [µM]	LC50 (50% lethal concentration) (MDA-N) [µM]	CC50 (M14) [µM]	CC50 (KM12) [µM]	LC50 (concentration killing 50% of cells) (NCI-H322M) [µM]	CC50 (SR) [µM]	CC50 (ACHN) [µM]	CC50 (SF-295) [µM]	CC50 (UO-31) [µM]	CC50 (SK-MEL-5) [µM]	CC50 (OVCAR-3) [µM]	CC50 (OVCAR-8) [µM]	CC50 (NCI-H23) [µM]	CC50 (MALME-3M) [µM]	CC50 (SNB-75) [µM]	CC50 (EKVX) [µM]	CC50 (TK-10) [µM]	further results
O=Cc1ccc(-c2ccc(-c3ccc(C=O)[se]3)s2)s1	> 100	0.331	> 100	> 100	> 100	> 100	> 100	> 100	> 100	> 100	> 100	> 100	> 100	> 100	> 100	> 100	> 100	> 100	> 100	61.7	IC (TGI) (SF-295; SF-295, read-out: Log10 TGI): > 100 µM; CC50 (MDA-MB-435): > 100 µM; IC (TGI) (NCI-H23): > 100 µM
OCc1ccc(-c2ccc(-c3ccc(CO)[se]3)s2)s1	44.7	0.0724	28.8	> 100	> 100	> 100	> 100	> 100	> 100	> 100	> 100	> 100	> 100	50.1	> 100	> 100	> 100	> 100	> 100	64.6	CC50 (MDA-MB-435): > 100 µM
OCc1ccc(-c2ccc(-c3ccc[se]3)s2)[se]1	> 100	0.302	> 100	> 100	> 100	> 100	> 100	> 100	> 100	> 100	> 100	> 100	> 100	40.7	> 100	91.2	> 100	> 100	> 100	72.4	CC50 (MDA-MB-435): > 100 µM; IC (TGI) (MALME-3M; read-out: Log10 TGI): > 100 µM
OCc1ccc(-c2ccc(-c3ccc[se]3)[se]2)[se]1	53.7	0.692	22.9	> 100	> 100	61.7	52.5	47.9	> 100		72.4	> 100	29.5	6.92	> 100	70.8	50.1	> 100	42.7	> 100	IC (TGI) (NCI-H23): 30.9 µM
